Measurements published in PubChem BioAssay (NCI).
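The compound was tested at five concentrations on cells cultured in 96-well plates, with a 48-hour exposure period. Abbreviation: GI50, concentration required for 50% inhibition of growth. TGI is the concentration that stops growth completely.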

Legend:
Experiment in all cases: inhibition of tumour cell growth, NCI panel, 48 h
HT29 colon = system: HT29 colon
NCI-H460 lung = system: NCI-H460 lung
SK-MEL-28 melanoma = system: SK-MEL-28 melanoma
LOX IMVI melanoma = system: LOX IMVI melanoma
NCI-H23 lung = system: NCI-H23 lung
SF-268 CNS = system: SF-268 CNS
MOLT-4 leukemia = system: MOLT-4 leukemia
MCF7 breast = system: MCF7 breast
M14 melanoma = system: M14 melanoma
KM12 colon = system: KM12 colon
SF-295 CNS = system: SF-295 CNS
UACC-62 melanoma = system: UACC-62 melanoma
CCRF-CEM leukemia = system: CCRF-CEM leukemia
SR leukemia = system: SR leukemia
UO-31 renal = system: UO-31 renal
A498 renal = system: A498 renal
RXF 393 renal = system: RXF 393 renal
SF-539 CNS = system: SF-539 CNS
HOP-62 NSCLC = system: HOP-62 NSCLC
MDA-MB-435 = system: MDA-MB-435
NCI-H522 lung = system: NCI-H522 lung
OVCAR-4 ovarian = system: OVCAR-4 ovarian
A549 NSCLC = system: A549 NSCLC
UACC-257 melanoma = system: UACC-257 melanoma
HS 578T breast = system: HS 578T breast
PC-3 prostate = system: PC-3 prostate
IGROV1 ovarian = system: IGROV1 ovarian
HCT-15 colon = system: HCT-15 colon
OVCAR-5 ovarian = system: OVCAR-5 ovarian
MALME-3M melanoma = system: MALME-3M melanoma
RPMI-8226 leukemia = system: RPMI-8226 leukemia
T-47D breast = system: T-47D breast
786-0 renal = system: 786-0 renal
U251 CNS = system: U251 CNS
SNB-19 CNS = system: SNB-19 CNS
MDA-MB-231 breast = system: MDA-MB-231 breast
HL-60(TB) leukemia = system: HL-60(TB) leukemia
OVCAR-8 ovarian = system: OVCAR-8 ovarian
SK-MEL-2 melanoma = system: SK-MEL-2 melanoma
HCT-116 colon = system: HCT-116 colon
SW-620 colon = system: SW-620 colon
SNB-75 CNS = system: SNB-75 CNS
HCC-2998 colon = system: HCC-2998 colon
OVCAR-3 ovarian = system: OVCAR-3 ovarian
COLO 205 colon = system: COLO 205 colon
DU-145 prostate = system: DU-145 prostate
NCI-H226 lung = system: NCI-H226 lung
BT-549 breast = system: BT-549 breast
TK-10 renal = system: TK-10 renal
NCI/ADR-RES ovarian = system: NCI/ADR-RES ovarian
K-562 leukemia = system: K-562 leukemia
HOP-92 NSCLC = system: HOP-92 NSCLC
SN12C renal = system: SN12C renal
EKVX NSCLC = system: EKVX NSCLC
CAKI-1 renal = system: CAKI-1 renal
SK-MEL-5 melanoma = system: SK-MEL-5 melanoma
SK-OV-3 ovarian = system: SK-OV-3 ovarian
ACHN renal = system: ACHN renal

Compound: C#Cc1cccc(Nc2ncnc3cc(OC)c(OCCCCCCC(=O)NO)cc23)c1
- GI50 (HT29 colon): 253 nM
- TGI (HT29 colon): 5330 nM
- GI50 (NCI-H460 lung): 444 nM
- TGI (NCI-H460 lung): 4310 nM
- GI50 (SK-MEL-28 melanoma): 136 nM
- TGI (SK-MEL-28 melanoma): 1470 nM
- GI50 (LOX IMVI melanoma): 195 nM
- TGI (LOX IMVI melanoma): 1810 nM
- GI50 (NCI-H23 lung): 383 nM
- TGI (NCI-H23 lung): 2570 nM
- GI50 (SF-268 CNS): 379 nM
- TGI (SF-268 CNS): 2650 nM
- GI50 (MOLT-4 leukemia): 86.4 nM
- TGI (MOLT-4 leukemia): 1930 nM
- GI50 (MCF7 breast): 190 nM
- TGI (MCF7 breast): 3500 nM
- GI50 (M14 melanoma): 210 nM
- TGI (M14 melanoma): 1990 nM
- GI50 (KM12 colon): 197 nM
- TGI (KM12 colon): 3460 nM
- GI50 (SF-295 CNS): 311 nM
- TGI (SF-295 CNS): 2180 nM
- GI50 (UACC-62 melanoma): 79.7 nM
- TGI (UACC-62 melanoma): 344 nM
- GI50 (CCRF-CEM leukemia): 40.4 nM
- TGI (CCRF-CEM leukemia): 5850 nM
- GI50 (SR leukemia): 21.9 nM
- TGI (SR leukemia): 2090 nM
- GI50 (UO-31 renal): 141 nM
- TGI (UO-31 renal): 2690 nM
- GI50 (A498 renal): 162 nM
- TGI (A498 renal): 662 nM
- GI50 (RXF 393 renal): 75.2 nM
- TGI (RXF 393 renal): 367 nM
- GI50 (SF-539 CNS): 198 nM
- TGI (SF-539 CNS): 1340 nM
- GI50 (HOP-62 NSCLC): 311 nM
- TGI (HOP-62 NSCLC): 4570 nM
- GI50 (MDA-MB-435): 145 nM
- TGI (MDA-MB-435): 528 nM
- GI50 (NCI-H522 lung): 30.5 nM
- TGI (NCI-H522 lung): 430 nM
- GI50 (OVCAR-4 ovarian): 374 nM
- TGI (OVCAR-4 ovarian): 5340 nM
- GI50 (A549 NSCLC): 404 nM
- TGI (A549 NSCLC): 4450 nM
- GI50 (UACC-257 melanoma): 123 nM
- TGI (UACC-257 melanoma): 1120 nM
- GI50 (HS 578T breast): 86 nM
- TGI (HS 578T breast): 1040 nM
- GI50 (PC-3 prostate): 273 nM
- TGI (PC-3 prostate): 5380 nM
- GI50 (IGROV1 ovarian): 86.4 nM
- TGI (IGROV1 ovarian): 476 nM
- GI50 (HCT-15 colon): 1170 nM
- TGI (HCT-15 colon): 6100 nM
- GI50 (OVCAR-5 ovarian): 121 nM
- TGI (OVCAR-5 ovarian): 3000 nM
- GI50 (MALME-3M melanoma): 37 nM
- TGI (MALME-3M melanoma): 763 nM
- GI50 (RPMI-8226 leukemia): 302 nM
- TGI (RPMI-8226 leukemia): 1780 nM
- GI50 (T-47D breast): 46.5 nM
- TGI (T-47D breast): 495 nM
- GI50 (786-0 renal): 448 nM
- TGI (786-0 renal): 4680 nM
- GI50 (U251 CNS): 151 nM
- TGI (U251 CNS): 4070 nM
- GI50 (SNB-19 CNS): 115 nM
- TGI (SNB-19 CNS): 3650 nM
- GI50 (MDA-MB-231 breast): 274 nM
- TGI (MDA-MB-231 breast): 2290 nM
- GI50 (HL-60(TB) leukemia): 334 nM
- TGI (HL-60(TB) leukemia): 1700 nM
- GI50 (OVCAR-8 ovarian): 117 nM
- TGI (OVCAR-8 ovarian): 4430 nM
- GI50 (SK-MEL-2 melanoma): 309 nM
- TGI (SK-MEL-2 melanoma): 1850 nM
- GI50 (HCT-116 colon): 79.1 nM
- TGI (HCT-116 colon): 3330 nM
- GI50 (SW-620 colon): 58 nM
- TGI (SW-620 colon): 319 nM
- GI50 (SNB-75 CNS): 26.7 nM
- TGI (SNB-75 CNS): 468 nM
- GI50 (HCC-2998 colon): 217 nM
- TGI (HCC-2998 colon): 1340 nM
- GI50 (OVCAR-3 ovarian): 129 nM
- TGI (OVCAR-3 ovarian): 1640 nM
- GI50 (COLO 205 colon): 157 nM
- TGI (COLO 205 colon): 538 nM
- GI50 (DU-145 prostate): 136 nM
- TGI (DU-145 prostate): 4450 nM
- GI50 (NCI-H226 lung): 853 nM
- TGI (NCI-H226 lung): 4810 nM
- GI50 (BT-549 breast): 783 nM
- TGI (BT-549 breast): 5690 nM
- GI50 (TK-10 renal): 185 nM
- TGI (TK-10 renal): 2360 nM
- GI50 (NCI/ADR-RES ovarian): 917 nM
- TGI (NCI/ADR-RES ovarian): 6910 nM
- GI50 (K-562 leukemia): 81.7 nM
- GI50 (HOP-92 NSCLC): 51.2 nM
- TGI (HOP-92 NSCLC): 415 nM
- GI50 (SN12C renal): 129 nM
- TGI (SN12C renal): 4210 nM
- GI50 (EKVX NSCLC): 154 nM
- TGI (EKVX NSCLC): 6340 nM
- GI50 (CAKI-1 renal): 261 nM
- TGI (CAKI-1 renal): 3040 nM
- GI50 (SK-MEL-5 melanoma): 177 nM
- TGI (SK-MEL-5 melanoma): 496 nM
- GI50 (SK-OV-3 ovarian): 208 nM
- TGI (SK-OV-3 ovarian): 1030 nM
- GI50 (ACHN renal): 127 nM
- TGI (ACHN renal): 2480 nM
